Assay results reported in PubChem BioAssay (NCI).
Values joined by “and” are separate entries in the source; they are usually repeats but may differ in a detail not shown here. Identical values can stand only once.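 Exposure lasted 48 hours, with cells grown in 96-well plates and compounds tested at five concentrations. Here, GI50 denotes the concentration required for 50% inhibition of growth. TGI is the concentration that stops growth completely.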

Legend:
Assay in all cases: NCI tumour cell line growth inhibition, 48 h
ACHN renal = tested on: ACHN renal
CAKI-1 renal = tested on: CAKI-1 renal
HCT-116 colon = tested on: HCT-116 colon
HT29 colon = tested on: HT29 colon
MDA-MB-435 = tested on: MDA-MB-435
MOLT-4 leukemia = tested on: MOLT-4 leukemia
RPMI-8226 leukemia = tested on: RPMI-8226 leukemia
SF-539 CNS = tested on: SF-539 CNS
SK-MEL-28 melanoma = tested on: SK-MEL-28 melanoma
TK-10 renal = tested on: TK-10 renal

SMILES: COc1ccc2ncn(-c3cc(O[C@H](C)c4ccccc4C(F)(F)F)c(C(N)=O)s3)c2c1
- GI50 (ACHN renal): 3.17 µM
- TGI (ACHN renal): 25 µM
- GI50 (CAKI-1 renal): 1650 nM
- TGI (CAKI-1 renal): 17.5 µM
- GI50 (HCT-116 colon): 0.125 µM
- TGI (HCT-116 colon): 3.53 µM
- GI50 (HT29 colon): 83.9 nM
- TGI (HT29 colon): 3.21 µM
- GI50 (MDA-MB-435): 46.6 nM
- TGI (MDA-MB-435): 0.155 µM
- GI50 (MOLT-4 leukemia): 122 nM
- TGI (MOLT-4 leukemia): 4.43 µM
- GI50 (RPMI-8226 leukemia): 627 nM
- TGI (RPMI-8226 leukemia): 8.44 µM
- GI50 (SF-539 CNS): 131 nM
- TGI (SF-539 CNS): 4.07 µM
- GI50 (SK-MEL-28 melanoma): 2.64 µM
- TGI (SK-MEL-28 melanoma): 8.54 µM
- GI50 (TK-10 renal): 1330 nM
- TGI (TK-10 renal): 7.22 µM

SMILES: COc1cc(/C=C2\CC3C4CC=C5C[C@@H](OC(C)=O)CC[C@]5(C)C4CC[C@]3(C)C2=O)ccc1OCCN1CCCCC1 (some centres undefined)
- GI50 (ACHN renal): 3.64 µM
- TGI (ACHN renal): 14.4 µM
- GI50 (CAKI-1 renal): 2650 nM
- TGI (CAKI-1 renal): 7.64 µM
- GI50 (HT29 colon): 1880 nM
- TGI (HT29 colon): > 100 µM
- GI50 (MDA-MB-435): 1930 nM
- TGI (MDA-MB-435): 4.28 µM
- GI50 (MOLT-4 leukemia): 1160 nM
- TGI (MOLT-4 leukemia): 3.23 µM
- GI50 (SF-539 CNS): 2020 nM
- TGI (SF-539 CNS): 3.82 µM
- GI50 (SK-MEL-28 melanoma): 3.24 µM
- TGI (SK-MEL-28 melanoma): > 100 µM
- GI50 (TK-10 renal): 3400 nM
- TGI (TK-10 renal): 12.3 µM

SMILES: COc1ccc(Nc2nc3cc(N)cc(N)c3nc2-c2ccccc2)cc1
- GI50 (ACHN renal): 15.3 µM
- TGI (ACHN renal): 43.3 µM
- GI50 (CAKI-1 renal): 35200 nM
- TGI (CAKI-1 renal): > 100 µM
- GI50 (HCT-116 colon): 14.9 µM
- TGI (HCT-116 colon): 28.1 µM
- TGI (HT29 colon): 42.7 µM
- GI50 (MDA-MB-435): 16500 nM
- TGI (MDA-MB-435): 30.1 µM
- GI50 (RPMI-8226 leukemia): 19100 nM
- TGI (RPMI-8226 leukemia): > 100 µM
- GI50 (SK-MEL-28 melanoma): 16.8 µM
- TGI (SK-MEL-28 melanoma): 30.5 µM
- GI50 (TK-10 renal): 16500 nM
- TGI (TK-10 renal): 42.5 µM

SMILES: COc1ccc(C2(Cl)c3ccccc3N(c3ccccc3)c3ccccc32)cc1
- GI50 (ACHN renal): 0.598 µM
- TGI (ACHN renal): 10.1 µM
- GI50 (CAKI-1 renal): 1680 nM
- TGI (CAKI-1 renal): 12.5 µM
- GI50 (HT29 colon): 306 nM
- TGI (HT29 colon): 2.3 µM
- GI50 (MDA-MB-435): 242 nM
- TGI (MDA-MB-435): 1.56 µM
- GI50 (MOLT-4 leukemia): 1830 nM
- TGI (MOLT-4 leukemia): 11 µM
- GI50 (RPMI-8226 leukemia): 218 nM
- TGI (RPMI-8226 leukemia): 1.36 µM
- GI50 (SF-539 CNS): 519 nM
- TGI (SF-539 CNS): 1.95 µM
- GI50 (SK-MEL-28 melanoma): 0.222 µM
- TGI (SK-MEL-28 melanoma): 1.49 µM
- GI50 (TK-10 renal): 516 nM
- TGI (TK-10 renal): 3.21 µM

SMILES: COC(=O)[C@@H]1c2cc3c(c(O)c2[C@@H](OC2OC(C)C(OC)C(C)(OC)C2OC)C[C@]1(C)O)C(=O)c1c(O)cc2c(c1C3=O)O[C@H]1O[C@]2(C)[C@H](O)[C@@H](N(C)C)[C@@H]1O (some centres undefined)
- GI50 (ACHN renal): 0.0114 µM
- TGI (ACHN renal): 0.951 µM and 5.37 µM
- TGI (HT29 colon): 10.1 µM
- TGI (MDA-MB-435): 0.188 µM
- TGI (MOLT-4 leukemia): 0.229 µM and 0.0903 µM
- TGI (RPMI-8226 leukemia): 0.0557 µM
- TGI (SF-539 CNS): 0.16 µM and 0.0302 µM
- TGI (SK-MEL-28 melanoma): 0.0699 µM and 0.0273 µM
- GI50 (TK-10 renal): 38.6 nM

SMILES: COc1ccc(C(=O)C(CN(C)C)CN(C)C)cc1
- GI50 (ACHN renal): 1.56 µM
- TGI (ACHN renal): 2.93 µM
- GI50 (CAKI-1 renal): 1890 nM
- TGI (CAKI-1 renal): 3.56 µM
- GI50 (HCT-116 colon): 1.3 µM
- TGI (HCT-116 colon): 2.63 µM
- GI50 (HT29 colon): 2300 nM
- TGI (HT29 colon): 5.77 µM
- GI50 (MDA-MB-435): 2840 nM
- TGI (MDA-MB-435): 8.58 µM
- GI50 (RPMI-8226 leukemia): 2450 nM
- TGI (RPMI-8226 leukemia): 6.67 µM
- GI50 (SF-539 CNS): 7600 nM
- TGI (SF-539 CNS): 20.7 µM
- GI50 (SK-MEL-28 melanoma): 12.6 µM
- TGI (SK-MEL-28 melanoma): 27.3 µM
- GI50 (TK-10 renal): 2320 nM
- TGI (TK-10 renal): 6.98 µM

SMILES: Cc1nn(CNc2ccccc2C(F)(F)F)c(=S)n1/N=C/c1cccc2cccnc12
- GI50 (ACHN renal): 95.3 µM
- TGI (ACHN renal): > 100 µM
- GI50 (CAKI-1 renal): > 100000 nM
- TGI (CAKI-1 renal): > 100 µM
- GI50 (HCT-116 colon): 44.6 µM
- TGI (HCT-116 colon): > 100 µM
- GI50 (MDA-MB-435): 22700 nM
- TGI (MDA-MB-435): 55 µM
- GI50 (MOLT-4 leukemia): 41600 nM
- TGI (MOLT-4 leukemia): > 100 µM
- GI50 (RPMI-8226 leukemia): 28800 nM
- TGI (RPMI-8226 leukemia): > 100 µM
- GI50 (SF-539 CNS): > 100000 nM
- TGI (SF-539 CNS): > 100 µM
- GI50 (SK-MEL-28 melanoma): > 100 µM
- TGI (SK-MEL-28 melanoma): > 100 µM
- GI50 (TK-10 renal): > 100000 nM
- TGI (TK-10 renal): > 100 µM
